# PMC12016938, “A small molecule PKCε inhibitor reduces hyperalgesia induced by paclitaxel or opioid withdrawal” (JCI Insight, 2025)
# Several values for one entry are separate records, joined by “and”; a condition that tells them apart may be missing. Equal entries are not always repeated.
# Test system: self-administration (addictive potential)
# Assay: I.v. self-administration of CP612, between-session progressive ratio and demand curve
# Description: We tested the addictive potential of CP612 by examining the extent to which rats are willing to work to obtain CP612. Rats were initially trained to self-administer either saline, morphine (500 μg/kg/i.v. infusion), or 1 of 3 different doses of CP612 (75, 150, or 300 μg/kg/i.v. infusion) for 4 days at fixed ratio 1 (FR1, where 1 nose poke delivers 1 infusion).
# During the second phase, the ratio to obtain an infusion increased geometrically every other day (FR1, FR3, FR6, FR12, FR24, FR48, and FR96).
# Data (number of self-infusions) were also fitted in an economic-demand curve, which provides an estimate of the motivation to obtain drugs and their addictive potential ([20]). We measured elasticity (α), which is the relative change in consumption as a function of price (i.e., ratio of nose pokes required to obtain an infusion). Behavior is considered “inelastic” when consumption is insensitive to price and “elastic” when consumption is sensitive to price. We also measured Pmax, which is the price at which intake switches from inelastic to elastic. […] (Figure 8B).
# Rats not immediately anesthetized were eliminated from the study.
# Following this initial acquisition phase at FR1, the ratio to obtain the drug was increased geometrically every other day: FR3 (3 nose pokes are required to obtain 1 infusion of morphine), FR6, FR12, FR24, FR48, and FR96. This allows for analysis of drug consumption as a function of “price” using demand curves for behavioral economics, which can estimate the motivation to obtain drugs and their “addictive potential” ([20]). For this, data from each rat were fitted to the equation log Q = log Q0 + k (e ^–α(Q0 ^C) – 1), where Q represents consumption (number of self-infusions), and Q0 represents the level of consumption at the lowest price. C represents price for the drug (i.e., the ratio), and k is set to a constant accounting for the estimated range of consumption in logarithmic units (k = 4 in these studies). The symbol α is the relative change in consumption across changes in price (ratio). Behavior is considered “inelastic” when consumption is insensitive to price (i.e., the curve is flat, and consumption is maintained despite increases in price), and it switches to “elastic” when consumption is sensitive to price (i.e., when the curve is steep and consumption declines with increases in price). […] We also compared groups for their average intake in the consumption-price curves by measuring α (elasticity) and Pmax.
compound,measurement,setting,value
N[C@H](CNC(=O)C1(c2ccc(Cl)cc2)CCCC1)c1ccc(C(=O)Nc2ccncc2)cc1 [CP612],AVG Latency (FR12),"CP612-Mid, individual rat",0.5 and 1.1 and 1.0 and 3.5 and 4.2
same,AVG Latency (FR24),"CP612-Mid, individual rat",0.3 and 1.4 and 1.0 and 1.5
same,AVG Latency (FR48),"CP612-Mid, individual rat",0.112 and 1.3 and 0.7 and 0.539 and 2.5
same,AVG Latency (FR96),"CP612-Mid, individual rat",2.0 and 0.8 and 0.6 and 2.4
same,D1 Latency (FR1),"CP612-Mid, individual rat",3.8 and 0.15 and 0.8 and 0.215
same,D1 Latency (FR3),"CP612-Mid, individual rat",0.137 and 0.557 and 0.083 and 0.1 and 1.4
same,D1 Latency (FR6),"CP612-Mid, individual rat",0.9 and 1.2 and 1.4 and 3.2 and 4.8
same,D1 Latency (FR12),"CP612-Mid, individual rat",0.255 and 1.6 and 1.7 and 5.8
same,D1 Latency (FR24),"CP612-Mid, individual rat",0.108 and 2.3 and 0.4 and 0.282 and 2.0
same,D1 Latency (FR48),"CP612-Mid, individual rat",0.123 and 1.4 and 0.337 and 0.447 and 2.9
same,D1 Latency (FR96),"CP612-Mid, individual rat",2.4 and 0.76 and 0.8 and 2.5 and 0.4
same,D2 Latency (FR1),"CP612-Mid, individual rat",0.5 and 0.215 and 0.6 and 0.237 and 2.1
same,D2 Latency (FR3),"CP612-Mid, individual rat",1.4 and 0.375 and 2.2 and 0.065 and 0.125
same,D2 Latency (FR6),"CP612-Mid, individual rat",0.335 and 0.737 and 0.17 and 2.8 and 5.1
same,D2 Latency (FR12),"CP612-Mid, individual rat",0.7 and 0.6 and 0.4 and 5.2 and 2.6
same,D2 Latency (FR24),"CP612-Mid, individual rat",0.5 and 0.432 and 0.168 and 1.7 and 1.0
same,D2 Latency (FR48),"CP612-Mid, individual rat",0.1 and 1.2 and 1.0 and 0.632 and 2.0
same,D2 Latency (FR96),"CP612-Mid, individual rat",1.7 and 0.8 and 0.435 and 2.3
same,D3 Latency (FR1),"CP612-Mid, individual rat",0.237 and 0.127 and 0.132 and 0.128 and 0.347
same,D4 Latency (FR1),"CP612-Mid, individual rat",0.8 and 1.4 and 0.4 and 3.8
same,last Latency (FR1),"CP612-Mid, individual rat",0.158 and 0.458 and 0.11 and 0.378 and 3.0
same,last-1 Latency (FR1),"CP612-Mid, individual rat",0.8 and 1.4 and 0.4 and 3.8
same,last-2 Latency (FR1),"CP612-Mid, individual rat",0.237 and 0.127 and 0.132 and 0.128 and 0.347
same,last-3 Latency (FR1),"CP612-Mid, individual rat",0.237 and 0.215 and 0.6 and 0.128 and 0.347
same,AVG Latency (FR1_D1 to D4),"CP612-Mid, individual rats",1.8 and 5.8 and 0.9
same,AVG Latency (FR1_Last 2 FR1 days),"CP612-Mid, individual rats",0.456 and 1.8 and 0.373
same,AVG Latency (FR1_Last 4 FR1 days),"CP612-Mid, individual rats",0.455 and 2.3 and 0.265
same,AVG Latency (FR3),"CP612-Mid, individual rats",0.7 and 0.9 and 0.6
same,AVG Latency (FR6),"CP612-Mid, individual rats",1.0 and 2.4 and 0.144
same,AVG Latency (FR12),"CP612-Mid, individual rats",0.657 and 1.0 and 0.8
same,AVG Latency (FR24),"CP612-Mid, individual rats",0.8 and 0.757 and 0.6
same,AVG Latency (FR48),"CP612-Mid, individual rats",2.5 and 6.0 and 0.7
same,AVG Latency (FR96),"CP612-Mid, individual rats",1.0 and 1.3
same,D1 Latency (FR1),"CP612-Mid, individual rats",5.7 and 14.9 and 2.9
same,D1 Latency (FR3),"CP612-Mid, individual rats",1.0 and 0.8 and 0.465
same,D1 Latency (FR6),"CP612-Mid, individual rats",1.7 and 4.2 and 0.257
same,D1 Latency (FR12),"CP612-Mid, individual rats",0.9 and 1.9 and 1.1
same,D1 Latency (FR24),"CP612-Mid, individual rats",1.1 and 0.9 and 0.442
same,D1 Latency (FR48),"CP612-Mid, individual rats",1.5 and 0.8 and 1.2
same,D1 Latency (FR96),"CP612-Mid, individual rats",1.1 and 0.335 and 0.8
same,D2 Latency (FR1),"CP612-Mid, individual rats",0.7 and 3.0 and 0.022
same,D2 Latency (FR3),"CP612-Mid, individual rats",0.4 and 1.0 and 0.738
same,D2 Latency (FR6),"CP612-Mid, individual rats",0.427 and 0.638 and 0.03
same,D2 Latency (FR12),"CP612-Mid, individual rats",0.377 and 0.168 and 0.5
same,D2 Latency (FR24),"CP612-Mid, individual rats",0.5 and 0.6 and 0.753
same,D2 Latency (FR48),"CP612-Mid, individual rats",3.5 and 11.3 and 0.2
same,D2 Latency (FR96),"CP612-Mid, individual rats",0.8 and 2.3 and 1.1
same,D3 Latency (FR1),"CP612-Mid, individual rats",0.6 and 4.4 and 0.157
same,D4 Latency (FR1),"CP612-Mid, individual rats",0.3 and 1.0 and 0.57
same,last Latency (FR1),"CP612-Mid, individual rats",0.2 and 0.6 and 0.177
same,last-1 Latency (FR1),"CP612-Mid, individual rats",0.7 and 3.1 and 0.57
same,last-2 Latency (FR1),"CP612-Mid, individual rats",0.3 and 1.0 and 0.157
same,last-3 Latency (FR1),"CP612-Mid, individual rats",0.6 and 4.4 and 0.157
same,AVG Inf (FR96),"rat, in vivo",0.0
same,Addictive potential,"rat, in vivo",highly unlikely to be addictive
same,D1 Inf (FR96),"rat, in vivo",0
same,D2 Inf (FR96),"rat, in vivo",0
same,AVG Inf (FR96),"rat, in vivo, 2 h",0.0
same,D1 Inf (FR96),"rat, in vivo, 2 h",0
same,D2 Inf (FR96),"rat, in vivo, 2 h",0
same,D1 Inf (FR48),"rat, in vivo, 1 day at FR48",0
same,D1 Inf (FR96),"rat, in vivo, 1 day at FR96",0
same,D2 Inf (FR48),"rat, in vivo, 2 day at FR48",0
same,D2 Inf (FR96),"rat, in vivo, 2 day at FR96",0
